Data reported in ChEMBL document CHEMBL4811309, “Design, synthesis and antiproliferative activity of novel 2,4-diamino-5-methyleneaminopyrimidine derivatives as potential anticancer agents” (Bioorg Med Chem Lett, 2021).

Legend:
HCT-116 [1] = experiment: Cell cycle arrest in human HCT-116 cells assessed as accumulation at G2M phase at 10 uM measured after 24 hrs by propidium iodide staining based flow cytometry analysis (reference value: 30.39 %); type: functional
HCT-116 [2] = experiment: Induction of apoptosis in human HCT-116 cells assessed as late apoptotic cells at 10 uM incubated for 24 hrs by annexin V-FITC and propidium iodide staining based flow cytometry analysis (reference value: 0.899 %); type: functional
HCT-116 [3] = experiment: Cell cycle arrest in human HCT-116 cells assessed as accumulation at G0/G1 phase at 2.5 uM measured after 24 hrs by propidium iodide staining based flow cytometry analysis (reference value: 30.60 %); type: functional
HCT-116 [4] = experiment: Induction of apoptosis in human HCT-116 cells assessed as viable cells at 5 uM incubated for 24 hrs by Annexin V-FITC and propidium iodide staining based flow cytometry analysis (reference value: 92.9 %); type: functional; settings: read-out: Activity
HCT-116 [5] = experiment: Induction of apoptosis in human HCT-116 cells assessed as late apoptotic cells at 2.5 uM incubated for 24 hrs by Annexin V-FITC and propidium iodide staining based flow cytometry analysis (reference value: 0.899 %); type: functional
HCT-116 [6] = experiment: Cell cycle arrest in human HCT-116 cells assessed as accumulation at G2M phase at 2.5 uM measured after 24 hrs by propidium iodide staining based flow cytometry analysis (reference value: 30.39 %); type: functional
HCT-116 [7] = experiment: Induction of apoptosis in human HCT-116 cells assessed as necrotic cells at 2.5 uM incubated for 24 hrs by Annexin V-FITC and propidium iodide staining based flow cytometry analysis (reference value: 0.019 %); type: functional
HCT-116 [8] = experiment: Induction of apoptosis in human HCT-116 cells assessed as necrotic cells at 5 uM incubated for 24 hrs by Annexin V-FITC and propidium iodide staining based flow cytometry analysis (reference value: 0.019 %); type: functional
HCT-116 [9] = experiment: Induction of apoptosis in human HCT-116 cells assessed as viable cells at 2.5 uM incubated for 24 hrs by Annexin V-FITC and propidium iodide staining based flow cytometry analysis (reference value: 92.9 %); type: functional; settings: read-out: Activity
HCT-116 [10] = experiment: Cell cycle arrest in human HCT-116 cells assessed as accumulation at G2M phase at 5 uM measured after 24 hrs by propidium iodide staining based flow cytometry analysis (reference value: 30.39 %); type: functional
HCT-116 [11] = experiment: Cell cycle arrest in human HCT-116 cells assessed as accumulation at S phase at 10 uM measured after 24 hrs by propidium iodide staining based flow cytometry analysis (reference value: 39%); type: functional
MCF7 [12] = experiment: Potency index, ratio of 5-FU IC50 to test compound IC50 for antiproliferative activity against human MCF7 cells by MTT assay; type: functional
HCT-116 [13] = experiment: Induction of apoptosis in human HCT-116 cells assessed as viable cells at 10 uM incubated for 24 hrs by Annexin V-FITC and propidium iodide staining based flow cytometry analysis (reference value: 92.9 %); type: functional; settings: read-out: Activity
HeLa [14] = experiment: Potency index, ratio of 5-FU IC50 to test compound IC50 for antiproliferative activity against human HeLa cells by MTT assay; type: functional
HeLa [15] = experiment: Antiproliferative activity against human HeLa cells assessed as reduction in cell viability by MTT assay; type: functional, cell-based
HCT-116 [16] = experiment: Induction of apoptosis in human HCT-116 cells assessed as early apoptotic cells at 5 uM incubated for 24 hrs by Annexin V-FITC and propidium iodide staining based flow cytometry analysis (reference value: 6.19 %); type: functional
HCT-116 [17] = experiment: Induction of apoptosis in human HCT-116 cells assessed as necrotic cells at 10 uM incubated for 24 hrs by Annexin V-FITC and propidium iodide staining based flow cytometry analysis (reference value: 0.019 %); type: functional
HCT-116 [18] = experiment: Cell cycle arrest in human HCT-116 cells assessed as accumulation at S phase at 5 uM measured after 24 hrs by propidium iodide staining based flow cytometry analysis (reference value: 39%); type: functional
HCT-116 [19] = experiment: Cell cycle arrest in human HCT-116 cells assessed as accumulation at G0/G1 phase at 10 uM measured after 24 hrs by propidium iodide staining based flow cytometry analysis (reference value: 30.60 %); type: functional
HCT-116 [20] = experiment: Induction of apoptosis in human HCT-116 cells assessed as late apoptotic cells at 5 uM incubated for 24 hrs by Annexin V-FITC and propidium iodide staining based flow cytometry analysis (reference value: 0.899 %); type: functional
HCT-116 [21] = experiment: Induction of apoptosis in human HCT-116 cells assessed as early apoptotic cells at 10 uM incubated for 24 hrs by Annexin V-FITC and propidium iodide staining based flow cytometry analysis (reference value: 6.19 %); type: functional
MCF7 [22] = experiment: Antiproliferative activity against human MCF7 cells assessed as reduction in cell viability by MTT assay; type: functional, cell-based
HCT-116 [23] = experiment: Potency index, ratio of 5-FU IC50 to test compound IC50 for antiproliferative activity against human HCT-116 cells by MTT assay; type: functional
HT-29 [24] = experiment: Potency index, ratio of 5-FU IC50 to test compound IC50 for antiproliferative activity against human HT-29 cells by MTT assay; type: functional
HCT-116 [25] = experiment: Cell cycle arrest in human HCT-116 cells assessed as accumulation at G0/G1 phase at 5 uM measured after 24 hrs by propidium iodide staining based flow cytometry analysis (reference value: 30.60 %); type: functional
HCT-116 [26] = experiment: Induction of apoptosis in human HCT-116 cells assessed as early apoptotic cells at 2.5 uM incubated for 24 hrs by Annexin V-FITC and propidium iodide staining based flow cytometry analysis (reference value: 6.19 %); type: functional
HT-29 [27] = experiment: Antiproliferative activity against human HT-29 cells assessed as reduction in cell viability by MTT assay; type: functional, cell-based
HCT-116 [28] = experiment: Antiproliferative activity against human HCT-116 cells assessed as reduction in cell viability by MTT assay; type: functional, cell-based
HCT-116 [29] = experiment: Cell cycle arrest in human HCT-116 cells assessed as accumulation at S phase at 2.5 uM measured after 24 hrs by propidium iodide staining based flow cytometry analysis (reference value: 39%); type: functional

CCOC(=O)/C=N/c1cnc(Nc2ccc(N3CCOCC3)cc2)nc1NC1CCCC1
Activity (HCT-116 [1]): 29.98% | Activity (HCT-116 [2]): 24.4% | Activity (HCT-116 [3]): 34.63% | viability at 5 µM (HCT-116 [4]): 63.5% | Activity (HCT-116 [5]): 8.86% | Activity (HCT-116 [6]): 27.6% | Activity (HCT-116 [7]): 0.195% | Activity (HCT-116 [8]): 0.62% | viability at 2.5 µM (HCT-116 [9]): 80.3% | Activity (HCT-116 [10]): 33.02% | Activity (HCT-116 [11]): 28.47% | Ratio IC50 (MCF7 [12]): 2.1 | viability at 10 µM (HCT-116 [13]): 44.5% | Ratio IC50 (HeLa [14]): 3 | IC50 (HeLa [15]): 14.2 µM | Activity (HCT-116 [16]): 24.2% | Activity (HCT-116 [17]): 3.09% | Activity (HCT-116 [18]): 30.52% | Activity (HCT-116 [19]): 41.55% | Activity (HCT-116 [20]): 11.7% | Activity (HCT-116 [21]): 28% | IC50 (MCF7 [22]): 8.84 µM | Ratio IC50 (HCT-116 [23]): 4.9 | Ratio IC50 (HT-29 [24]): 2.9 | Activity (HCT-116 [25]): 36.46% | Activity (HCT-116 [26]): 10.6% | IC50 (HT-29 [27]): 5.57 µM | IC50 (HCT-116 [28]): 4.93 µM | Activity (HCT-116 [29]): 37.77%
